Measured values published in patent US12552798B2, “Substituted imidazolecarboxamide as Bruton's tyrosine kinase inhibitors” (Henan Zhiwei Biomedicine Co., Ltd., priority 2019, dated 2026).
Where two headings read alike, the source gives them in different places.

What was measured:
[1] = molecular target: ITK (Homo sapiens (Human), UniProt Q08881); experiment: ITK kinase inhibitory assay (ELISA); type: biochemical; conditions: for IC50: ELISA, 3 μmol/L ATP; for Selectivity Ratio (BTK and ITK): ITK IC50 relative to BTK IC50
Method: (§1) BTK, EGFR, BMX, or ITK Inhibitory Assay Procedure for BTK, BMX, EGFR and ITK Inhibitory Assay:
(§2) Kinase inhibitory activities of compounds were evaluated using the Enzyme-linked immunosorbent assay (ELISA). The kinase enzyme of BTK, BMX, EGFR and ITK were purchased from Carna Bioscience (Kobe, Japan). A total of 10 ng/mL antiphosphotyrosine (PY713) antibody (abcam, Cambridge Science Park, UK) was precoated in 96-well ELISA plates. The kinase enzymes in each reaction well were set to BTK (101.25 ng/mL), BMX (90 ng/mL), EGFR (90 ng/mL) or ITK (120 ng/mL) and incubated with indicated compounds in 1× reaction buffer (50 mmol/L HEPES pH 7.4, 20 mmol/L MgCl2, 0.1 mmol/L MnCl2, 1 mmol/L DTT) containing 20 μmol/L (the final concentration of substrate in ITK reaction was 30 μmol/L) substrate (NH2-ETVYSEVRK-biotin) at 25° C. for 1 h. Then, a total of 3 μmol/L ATP was added and the reaction was continued for 2 hrs. The products of reaction were transferred into 96-well ELISA plates containing antibody and incubated at 25° C. for 30 min. After incubation, the wells were washed with PBS and then incubated with horseradish peroxidase […]-conjugated streptavidin. The wells were visualized using 3,3′,5,5′-tetramethylbenzidine (TMB), and chromogenic reaction was ended with 2 mol/L H2SO4, the absorbance was read with a multimode plate reader (PerkinElmer, USA) at 450 nm. IC50 values and curve fits were obtained using Prism (GraphPad Software).

[2] = molecular target: BMX (Homo sapiens (Human), UniProt P51813); experiment: BMX kinase inhibitory assay (ELISA); type: biochemical; conditions: for Selectivity Ratio (BTK and BMX): BMX IC50 relative to BTK IC50; for IC50: ELISA, 3 μmol/L ATP
Method: as §1, §2

[3] = molecular target: EGFR (Homo sapiens (Human), UniProt P00533); experiment: EGFR kinase inhibitory assay (ELISA); type: biochemical; conditions: for Selectivity Ratio (BTK and EGFR): EGFR IC50 relative to BTK IC50; for IC50: ELISA, 3 μmol/L ATP
Method: as §1, §2

[4] = molecular target: BTK (Homo sapiens (Human), UniProt Q06187); experiment: BTK kinase inhibitory assay (ELISA); type: biochemical; conditions: 3 μmol/L ATP
Method: as §1, §2

[5] = system: TMD8; experiment: Cell antiproliferative activity assay (CellTiter-Glo), TMD8; type: cell-based; conditions: read-out: Cell Growth IC50 (nM) TMD8
Method: (§3) Cell Antiproliferative Activity Assay
(§4) Cell antiproliferative activity was evaluated by the CellTiter-Glo (Promega, USA) assay. Make 1000× compounds solution in DMSO, add 1 μl 1000× compounds to […] growth medium to make 20× compounds. Dilute cell suspensions in growth medium to desired density and 95 μl were taken to 96-well plate. Add 5 μl 20× compounds into 96-well plate according to the plate map. Final DMSO concentration in each well was 0.1%. Then the cell was incubated at 37° C., 5% CO2 for 72 hs. Equilibrate the assay plate to room temperature before measurement. Add 20 μl of CellTiter-Glo© Reagent into each well. Mix contents for 2 minutes on an orbital shaker to induce cell lysis. Incubate at room temperature for 10 minutes to stabilize luminescent signal. Record luminescence using EnVision Multilabel Reader (PerkinElmer). Cell viability (CV %) was calculated relative to vehicle (DMSO) treated control wells using following formula: Cell viability (%)=(RLU compound−RLU blank)/(RLU control−RLU blank)*100%. The IC50 values were calculated using GraphPad Prism 6.0 software, fitting to a 4-parameter equation to generate concentration response curves. All assays were conducted with three parallel samples and three repetitions.

[6] = system: 293T; experiment: Cell antiproliferative activity assay (CellTiter-Glo), 293T; type: cell-based; conditions: 72 hs, read-out: Cell Growth IC50 (nM) 293T
Method: as §3, §4

Sequence of EGFR (P00533 25-1210): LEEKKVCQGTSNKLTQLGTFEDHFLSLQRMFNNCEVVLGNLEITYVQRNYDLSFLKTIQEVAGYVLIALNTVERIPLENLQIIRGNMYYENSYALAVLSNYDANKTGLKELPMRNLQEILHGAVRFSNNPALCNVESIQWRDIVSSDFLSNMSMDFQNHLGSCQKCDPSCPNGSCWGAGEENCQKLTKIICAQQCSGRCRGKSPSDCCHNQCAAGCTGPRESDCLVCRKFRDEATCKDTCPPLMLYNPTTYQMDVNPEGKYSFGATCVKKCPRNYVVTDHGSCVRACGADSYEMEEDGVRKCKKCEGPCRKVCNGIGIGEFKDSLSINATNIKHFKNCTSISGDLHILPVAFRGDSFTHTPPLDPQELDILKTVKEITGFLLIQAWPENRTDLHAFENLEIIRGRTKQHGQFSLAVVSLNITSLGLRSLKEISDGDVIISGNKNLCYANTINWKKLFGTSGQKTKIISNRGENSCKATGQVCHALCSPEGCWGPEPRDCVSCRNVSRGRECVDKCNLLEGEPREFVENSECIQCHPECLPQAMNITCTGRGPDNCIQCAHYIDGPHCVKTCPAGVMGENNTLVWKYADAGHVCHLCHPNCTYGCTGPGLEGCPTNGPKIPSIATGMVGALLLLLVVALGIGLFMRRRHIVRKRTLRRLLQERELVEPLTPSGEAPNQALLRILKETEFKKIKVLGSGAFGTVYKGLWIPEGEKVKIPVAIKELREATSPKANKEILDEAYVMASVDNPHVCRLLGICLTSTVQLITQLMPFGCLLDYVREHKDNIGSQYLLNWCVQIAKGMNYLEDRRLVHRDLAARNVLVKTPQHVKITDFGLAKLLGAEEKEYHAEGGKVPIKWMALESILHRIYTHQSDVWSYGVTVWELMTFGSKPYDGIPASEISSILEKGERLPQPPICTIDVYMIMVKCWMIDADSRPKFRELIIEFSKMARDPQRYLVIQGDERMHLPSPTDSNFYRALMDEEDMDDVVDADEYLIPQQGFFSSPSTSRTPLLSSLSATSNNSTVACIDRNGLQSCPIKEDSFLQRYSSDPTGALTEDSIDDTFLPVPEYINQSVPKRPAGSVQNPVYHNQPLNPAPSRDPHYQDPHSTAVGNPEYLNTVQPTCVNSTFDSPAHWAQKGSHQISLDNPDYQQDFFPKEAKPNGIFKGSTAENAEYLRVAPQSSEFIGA
Sequence of BMX (P51813 whole entry): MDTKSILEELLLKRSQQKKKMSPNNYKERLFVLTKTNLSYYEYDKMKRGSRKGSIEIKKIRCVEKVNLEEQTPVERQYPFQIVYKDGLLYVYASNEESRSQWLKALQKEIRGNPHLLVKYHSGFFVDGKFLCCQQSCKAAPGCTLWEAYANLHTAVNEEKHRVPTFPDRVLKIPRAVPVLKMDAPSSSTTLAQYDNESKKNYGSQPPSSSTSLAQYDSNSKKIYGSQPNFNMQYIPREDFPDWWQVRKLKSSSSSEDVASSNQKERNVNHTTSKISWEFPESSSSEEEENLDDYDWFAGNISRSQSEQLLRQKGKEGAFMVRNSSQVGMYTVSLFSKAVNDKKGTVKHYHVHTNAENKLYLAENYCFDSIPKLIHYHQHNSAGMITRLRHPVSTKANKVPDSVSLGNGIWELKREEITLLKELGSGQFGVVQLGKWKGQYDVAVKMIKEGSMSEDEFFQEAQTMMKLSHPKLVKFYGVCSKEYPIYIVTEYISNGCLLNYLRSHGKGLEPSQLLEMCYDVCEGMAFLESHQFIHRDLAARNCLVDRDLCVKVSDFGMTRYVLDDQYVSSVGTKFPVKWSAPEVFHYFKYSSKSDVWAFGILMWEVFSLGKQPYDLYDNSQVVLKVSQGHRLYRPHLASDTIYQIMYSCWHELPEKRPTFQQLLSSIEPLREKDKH
Sequence of ITK (Q08881 whole entry): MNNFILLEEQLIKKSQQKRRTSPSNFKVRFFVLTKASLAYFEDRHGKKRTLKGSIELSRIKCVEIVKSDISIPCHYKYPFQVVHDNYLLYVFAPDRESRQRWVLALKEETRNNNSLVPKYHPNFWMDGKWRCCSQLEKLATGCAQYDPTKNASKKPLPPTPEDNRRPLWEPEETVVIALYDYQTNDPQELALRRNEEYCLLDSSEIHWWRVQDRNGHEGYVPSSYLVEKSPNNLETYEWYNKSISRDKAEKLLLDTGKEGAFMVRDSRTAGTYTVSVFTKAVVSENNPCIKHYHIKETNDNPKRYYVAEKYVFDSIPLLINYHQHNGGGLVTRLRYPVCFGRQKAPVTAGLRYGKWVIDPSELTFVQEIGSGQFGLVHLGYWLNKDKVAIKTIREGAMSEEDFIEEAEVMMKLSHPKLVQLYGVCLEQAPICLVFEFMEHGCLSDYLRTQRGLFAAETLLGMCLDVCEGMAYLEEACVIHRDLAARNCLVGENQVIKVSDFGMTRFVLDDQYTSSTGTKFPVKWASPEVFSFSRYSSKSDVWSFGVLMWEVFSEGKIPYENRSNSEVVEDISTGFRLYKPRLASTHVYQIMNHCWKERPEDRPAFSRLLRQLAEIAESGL
Sequence of BTK (Q06187 whole entry): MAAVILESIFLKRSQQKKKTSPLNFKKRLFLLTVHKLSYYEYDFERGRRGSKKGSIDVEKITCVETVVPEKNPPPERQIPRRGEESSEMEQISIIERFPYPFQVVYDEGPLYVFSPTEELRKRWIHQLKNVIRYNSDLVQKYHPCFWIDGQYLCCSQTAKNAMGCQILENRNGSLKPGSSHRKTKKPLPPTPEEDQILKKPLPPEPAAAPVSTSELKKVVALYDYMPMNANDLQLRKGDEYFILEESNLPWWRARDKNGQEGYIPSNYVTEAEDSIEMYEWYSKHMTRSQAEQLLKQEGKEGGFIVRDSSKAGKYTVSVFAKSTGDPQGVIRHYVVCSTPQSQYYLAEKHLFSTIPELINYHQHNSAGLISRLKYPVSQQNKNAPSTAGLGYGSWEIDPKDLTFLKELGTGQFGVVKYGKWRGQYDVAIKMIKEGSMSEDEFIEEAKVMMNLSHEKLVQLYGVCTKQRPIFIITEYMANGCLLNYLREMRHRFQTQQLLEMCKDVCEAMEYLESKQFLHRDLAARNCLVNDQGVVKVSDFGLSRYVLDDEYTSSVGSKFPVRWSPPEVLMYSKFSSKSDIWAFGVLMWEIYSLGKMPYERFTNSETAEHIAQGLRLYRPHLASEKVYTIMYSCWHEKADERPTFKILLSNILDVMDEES

Q: How did the IC50 [1] turn out when `C=CC(=O)N1CCC(C2CCn3c2nc(-c2ccc(Oc4ccccc4)cc2)c3C(N)=O)CC1` (stereo not shown) [Example 26, 7-(1-acryloylpiperidin-4-yl)-2-(4-phenoxyphenyl)-6,7-dihydro-5H-pyrrolo[1,2-a]imidazole-3-carboxamide] was run?
A: The IC50 was 4660 nM.

Q: And the “Selectivity Ratio (BTK and ITK)” value [1]?
A: Its value is 555.2.

Q: And the “Selectivity Ratio (BTK and BMX)” value [2]?
A: The value was 3.70.

Q: And the IC50 [2]?
A: The IC50 was 31.1 nM.

Q: What about the “Selectivity Ratio (BTK and EGFR)” value [3] of the same molecule?
A: Its value is 9.75.

Q: And the IC50 [3]?
A: The IC50 was 81.9 nM.

Q: And the IC50 [4]?
A: The IC50 was 8.4 nM.

Q: Which IC50 [4] does the source give for `CN(C)C/C=C/C(=O)N1CCC(C2CCNn3c2nc(-c2ccc(Oc4ccccc4)cc2)c3C(N)=O)CC1` (stereo not shown) [Example 25, (E)-8-(1-(4-(dimethylamino)but-2-enoyl)piperidin-4-yl)-2-(4-phenoxyphenyl)-5,6,7,8-tetrahydroimidazo[1,2-b]pyridazine-3-carboxamide] here?
A: Its IC50 is 185 nM.

Q: For `C=CC(=O)N1CC(C2CCNn3c2nc(-c2ccc(Oc4ccccc4)cc2)c3C(N)=O)C1` (stereo not shown) [Example 18, 8-(1-acryloylazetidin-3-yl)-2-(4-phenoxyphenyl)-5,6,7,8-tetrahydroimidazo[1,2-b]pyridazine-3-carboxamide], which IC50 [4] is on record?
A: Its IC50 is 37.4 nM.

Q: With `CC#CC(=O)N1CCC(C2CCNn3c2nc(-c2ccc(Oc4ccc(F)cc4)cc2)c3C(N)=O)CC1` (stereo not shown) [Example 13, 8-(1-(but-2-ynoyl)piperidin-4-yl)-2-(4-(4-fluorophenoxy)phenyl)-5,6,7,8-tetrahydroimidazo[1,2-b]pyridazine-3-carboxamide] as the molecule, how does the IC50 [4] read?
A: Its IC50 is 122 nM.

Q: How did the IC50 [4] turn out when `C=CC(=O)N1CCC(C2CCNn3c2nc(-c2ccc(Oc4ccccc4)c(OC)c2)c3C(N)=O)CC1` (stereo not shown) [Example 29, 8-(1-acryloylpiperidin-4-yl)-2-(3-methoxy-4-phenoxyphenyl)-5,6,7,8-tetrahydroimidazo[1,2-b]pyridazine-3-carboxamide] was run?
A: Its IC50 is 46.5 nM.

Q: With `NC(=O)c1c(-c2ccc(Oc3ccc(F)cc3)cc2)nc2n1NCCC2C1CCN(C(=O)/C=C/C(F)(F)F)CC1` (stereo not shown) [Example 14, (E)-2-(4-(4-fluorophenoxy)phenyl)-8-(1-(4,4,4-trifluorobut-2-enoyl)piperidin-4-yl)-5,6,7,8-tetrahydroimidazo[1,2-b]pyridazine-3-carboxamide] as the molecule, how does the IC50 [4] read?
A: The IC50 was 61.5 nM.

Q: How did the IC50 [1] turn out when `C=CC(=O)N1CCC(C2CCn3c2nc(-c2ccc(Oc4ccccc4)c(OC)c2)c3C(N)=O)CC1` (stereo not shown) [Example 28, 7-(1-acryloylpiperidin-4-yl)-2-(3-methoxy-4-phenoxyphenyl)-6,7-dihydro-5H-pyrrolo[1,2-a]imidazole-3-carboxamide] was run?
A: The IC50 was greater than 30000 nM.

Q: What about the “Selectivity Ratio (BTK and ITK)” value [1] of the same molecule?
A: Its value is greater than 2803.7.

Q: What about the “Selectivity Ratio (BTK and BMX)” value [2] of the same molecule?
A: Its value is 7.51.

Q: What about the IC50 [2] of the same molecule?
A: Its IC50 is 80.3 nM.

Q: What about the “Selectivity Ratio (BTK and EGFR)” value [3] of the same molecule?
A: Its value is 35.66.

Q: What about the IC50 [3] of the same molecule?
A: Its IC50 is 382 nM.

Q: What about the IC50 [4] of the same molecule?
A: The IC50 was 10.7 nM.

Q: With `COc1ccc(Oc2ccc(-c3nc4n(c3C(N)=O)NCCC4C3CCN(C(=O)/C=C/C(F)(F)F)CC3)cc2)cc1` (stereo not shown) [Example 17, (E)-2-(4-(4-methoxyphenoxy)phenyl)-8-(1-(4,4,4-trifluorobut-2-enoyl)piperidin-4-yl)-5,6,7,8-tetrahydroimidazo[1,2-b]pyridazine-3-carboxamide] as the molecule, how does the IC50 [4] read?
A: The IC50 was 212 nM.

Q: For `C=CC(=O)N1CCC(C2CCNn3c2nc(-c2ccc(Oc4ccccc4)cc2)c3C(N)=O)CC1` (stereo not shown) [Example 1, 8-(1-acryloylpiperidin-4-yl)-2-(4-phenoxyphenyl)-5,6,7,8-tetrahydroimidazo[1,2-b]pyridazine-3-carboxamide], which IC50 [1] is on record?
A: The IC50 was 13600 nM.

Q: What about the “Selectivity Ratio (BTK and ITK)” value [1] of the same molecule?
A: The value was 2945.

Q: What about the IC50 ([5]; Homo sapiens, TMD8, TMD8, 72 hs) of the same molecule?
A: Its IC50 is 12.3 nM.

Q: What about the “Selectivity Ratio (BTK and BMX)” value [2] of the same molecule?
A: The value was 5.80.

Q: And the IC50 [2]?
A: Its IC50 is 26.7 nM.

Q: What about the IC50 ([6]; Homo sapiens, HEK-293T) of the same molecule?
A: Its IC50 is 573000 nM.

Q: What about the “Selectivity Ratio (BTK and EGFR)” value [3] of the same molecule?
A: Its value is 19.48.

Q: And the IC50 [3]?
A: Its IC50 is 89.6 nM.

Q: What about the IC50 [4] of the same molecule?
A: Its IC50 is 4.6 nM.

Q: How did the IC50 [1] turn out when `C=CC(=O)Nc1ccccc1C1CCNn2c1nc(-c1ccc(Oc3ccccc3)cc1)c2C(N)=O` (stereo not shown) [Example 22, 8-(2-acrylamidophenyl)-2-(4-phenoxyphenyl)-5,6,7,8-tetrahydroimidazo[1,2-b]pyridazine-3-carboxamide] was run?
A: Its IC50 is 27900 nM.

Q: And the “Selectivity Ratio (BTK and ITK)” value [1]?
A: The value was 5160.6.

Q: What about the “Selectivity Ratio (BTK and BMX)” value [2] of the same molecule?
A: The value was 11.94.

Q: And the IC50 [2]?
A: The IC50 was 64.5 nM.

Q: What about the “Selectivity Ratio (BTK and EGFR)” value [3] of the same molecule?
A: The value was 3.05.

Q: What about the IC50 [3] of the same molecule?
A: The IC50 was 16.5 nM.

Q: And the IC50 [4]?
A: The IC50 was 5.4 nM.

Q: `C=CC(=O)N1CCC(C2CCNn3c2nc(-c2ccc(Oc4ccc(F)cc4)cc2)c3C(N)=O)CC1` (stereo not shown) [Example 12, 8-(1-acryloylpiperidin-4-yl)-2-(4-(4-fluorophenoxy)phenyl)-5,6,7,8-tetrahydroimidazo[1,2-b]pyridazine-3-carboxamide] was tested. Which IC50 [4] did it give?
A: The IC50 was 49.4 nM.

Q: Which IC50 [4] does the source give for `C=CC(=O)N1CCC(C2CCNn3c2nc(-c2ccc(Oc4ccccc4)cc2)c3C(N)=O)C1` (stereo not shown) [Example 21, 8-(1-acryloylpyrrolidin-3-yl)-2-(4-phenoxyphenyl)-5,6,7,8-tetrahydroimidazo[1,2-b]pyridazine-3-carboxamide] here?
A: The IC50 was 132 nM.

Q: For `C=CC(=O)N1CCC(C2CCNn3c2nc(-c2ccc(Oc4ccc(OC)cc4)cc2)c3C(N)=O)CC1` (stereo not shown) [Example 15, 8-(1-acryloylpiperidin-4-yl)-2-(4-(4-methoxyphenoxy)phenyl)-5,6,7,8-tetrahydroimidazo[1,2-b]pyridazine-3-carboxamide], which IC50 [4] is on record?
A: Its IC50 is 42.6 nM.

Q: With `C=CC(=O)N1CCC(C2CCNn3c2nc(-c2ccc(OC)cc2)c3C(N)=O)CC1` (stereo not shown) [Example 27, 8-(1-acryloylpiperidin-4-yl)-2-(4-methoxyphenyl)-5,6,7,8-tetrahydroimidazo[1,2-b]pyridazine-3-carboxamide] as the molecule, how does the IC50 [4] read?
A: Its IC50 is 242 nM.

Q: Which IC50 [4] does the source give for `N#C/C(=C\C1CC1)C(=O)N1CCC(C2CCNn3c2nc(-c2ccc(Oc4ccccc4)cc2)c3C(N)=O)CC1` (stereo not shown) [Example 8, 8-[1-(2-Cyano-3-cyclopropyl-acryloyl)-piperidin-4-yl]-2-(4-phenoxy-phenyl)-5,6,7,8-tetrahydro-imidazo[1,2-b]pyridazine-3-carboxamide] here?
A: The IC50 was 285 nM.

Q: For `CC#CC(=O)N1CCC(C2CCNn3c2nc(-c2ccc(Oc4ccc(OC)cc4)cc2)c3C(N)=O)CC1` (stereo not shown) [Example 16, 8-(1-(but-2-ynoyl)piperidin-4-yl)-2-(4-(4-methoxyphenoxy)phenyl)-5,6,7,8-tetrahydroimidazo[1,2-b]pyridazine-3-carboxamide], which IC50 [4] is on record?
A: The IC50 was 778 nM.

Q: With `C=CC(=O)N1CCC(C2CCNn3c2nc(-c2ccc(Oc4ccccc4)cc2)c3C(N)=O)CC1` (single isomer, unassigned) [1b (peak 2)] as the molecule, how does the IC50 [1] read?
A: The IC50 was greater than 30000 nM.

Q: What about the “Selectivity Ratio (BTK and ITK)” value [1] of the same molecule?
A: Its value is greater than 1038.

Q: What about the IC50 ([5]; TMD8, 72 hs) of the same molecule?
A: The IC50 was 102 nM.

Q: What about the “Selectivity Ratio (BTK and BMX)” value [2] of the same molecule?
A: The value was 1.86.

Q: What about the IC50 [2] of the same molecule?
A: Its IC50 is 53.9 nM.

Q: What about the IC50 [6] of the same molecule?
A: The IC50 was 5240 nM.

Q: And the “Selectivity Ratio (BTK and EGFR)” value [3]?
A: The value was 5.87.

Q: And the IC50 [3]?
A: The IC50 was 170 nM.

Q: What about the IC50 [4] of the same molecule?
A: The IC50 was 28.9 nM.

Q: With `CC#CC(=O)N1CCC(C2CCNn3c2nc(-c2ccc(Oc4ccccc4)cc2)c3C(N)=O)CC1` (stereo not shown) [Example 2, 8-[1-(1-Oxo-but-2-ynyl)-piperidin-4-yl]-2-(4-phenoxy-phenyl)-5,6,7,8-tetrahydro-imidazo[1,2-b]pyridazine-3-carboxamide] as the molecule, how does the IC50 [4] read?
A: Its IC50 is 76.4 nM.
